Data taken from PMC7089538, “The effects of intra-stomach obestatin administration on intestinal contractility in neonatal piglets fed milk formula” (PLoS ONE, 2020).
Like-named read-outs stand apart in the source and are kept apart here. Marks after values point to notes of the source that are not given here. Where no end group is shown, it is not given here.

Experiments:
[1] = test system: middle jejunum; test: Histology: thickness of intestinal muscularis layer; type: in vivo, piglets (Polish Landrace x Pietrain); conditions: 6 days, H&E histometry, mean ± SEM
Experimental: (§1) Piglets' BW was recorded every morning. […] The protein concentration in the milk formula was 20%. […] Briefly, the samples were routinely embedded in paraffin and cut into 4.5 μm sections and applied to silane-treated slides. Next, the sections were immersed in xylene for dewaxing and then in descending grades of alcohol for rehydration. The segments were routinely stained using hematoxylin and eosin.

[2] = test system: duodenum; test: as above; type: in vivo, piglets (Polish Landrace x Pietrain); conditions: 6 days, H&E histometry, mean ± SEM
Experimental: as §1

[3] = test system: duodenum; conditions: duodenum strips; for EFS-evoked amplitude of contraction: 6 days, mean ± SEM
[4] = test system: middle jejunum; conditions: middle jejunum strips; for EFS-evoked amplitude of contraction: 6 days, mean ± SEM
[5] = in vivo; conditions: male, Polish Landrace x Pietrain, pig, po, obestatin concentration in the blood plasma
[6] = O2: obestatin 2 μg/kg BW intra-stomach every 8 h
[7] = O10: obestatin 10 μg/kg BW intra-stomach every 8 h
[8] = O15: obestatin 15 μg/kg BW intra-stomach every 8 h
[9] = O2: obestatin 2 μg/kg BW intra-stomach every 8 h, Basal, EFS 0.5 Hz
[10] = O2: obestatin 2 μg/kg BW intra-stomach every 8 h, Basal, EFS 5 Hz
[11] = O2: obestatin 2 μg/kg BW intra-stomach every 8 h, Basal, EFS 50 Hz
[12] = O2: obestatin 2 μg/kg BW intra-stomach every 8 h, TTX 10^−6 M, EFS 0.5 Hz
[13] = O2: obestatin 2 μg/kg BW intra-stomach every 8 h, TTX 10^−6 M, EFS 5 Hz
[14] = O2: obestatin 2 μg/kg BW intra-stomach every 8 h, TTX 10^−6 M, EFS 50 Hz
[15] = O10: obestatin 10 μg/kg BW intra-stomach every 8 h, Basal, EFS 0.5 Hz
[16] = O10: obestatin 10 μg/kg BW intra-stomach every 8 h, Basal, EFS 5 Hz
[17] = O10: obestatin 10 μg/kg BW intra-stomach every 8 h, Basal, EFS 50 Hz
[18] = O10: obestatin 10 μg/kg BW intra-stomach every 8 h, TTX 10^−6 M, EFS 0.5 Hz
[19] = O10: obestatin 10 μg/kg BW intra-stomach every 8 h, TTX 10^−6 M, EFS 5 Hz
[20] = O10: obestatin 10 μg/kg BW intra-stomach every 8 h, TTX 10^−6 M, EFS 50 Hz
[21] = O15: obestatin 15 μg/kg BW intra-stomach every 8 h, Basal, EFS 0.5 Hz
[22] = O15: obestatin 15 μg/kg BW intra-stomach every 8 h, Basal, EFS 5 Hz
[23] = O15: obestatin 15 μg/kg BW intra-stomach every 8 h, Basal, EFS 50 Hz
[24] = O15: obestatin 15 μg/kg BW intra-stomach every 8 h, TTX 10^−6 M, EFS 0.5 Hz
[25] = O15: obestatin 15 μg/kg BW intra-stomach every 8 h, TTX 10^−6 M, EFS 5 Hz
[26] = O15: obestatin 15 μg/kg BW intra-stomach every 8 h, TTX 10^−6 M, EFS 50 Hz
[27] = TTX 10^−6 M, responses similar to saline-treated preparations

FNAPFDVGIKLSGAQYQQHGRAL-NH2 [obestatin]
Thickness of muscularis layer [1, 6]: 88 ± 9^a μm
Thickness of muscularis layer [1, 7]: 63 ± 7^b μm
Thickness of muscularis layer [1, 8]: 66 ± 4^b μm
Thickness of muscularis layer [2, 6]: 106 ± 11^b μm
Thickness of muscularis layer [2, 7]: 107 ± 8^b μm
Thickness of muscularis layer [2, 8]: 89 ± 8^b μm
EFS-evoked amplitude of contraction [3, 9]: 2.53 ± 0.31^a mm
EFS-evoked amplitude of contraction [3, 10]: 2.78 ± 0.35^a mm
EFS-evoked amplitude of contraction [3, 11]: 2.95 ± 0.28^a^c mm
EFS-evoked amplitude of contraction [3, 12]: 0.48 ± 0.11 mm
EFS-evoked amplitude of contraction [3, 13]: 0.54 ± 0.11 mm
EFS-evoked amplitude of contraction [3, 14]: 0.82 ± 0.21 mm
EFS-evoked amplitude of contraction [3, 15]: 1.08 ± 0.26^b mm
EFS-evoked amplitude of contraction [3, 16]: 1.25 ± 0.32^b mm
EFS-evoked amplitude of contraction [3, 17]: 1.20 ± 0.29^a^d mm
EFS-evoked amplitude of contraction [3, 18]: 0.56 ± 0.16 mm
EFS-evoked amplitude of contraction [3, 19]: 0.59 ± 0.15 mm
EFS-evoked amplitude of contraction [3, 20]: 0.86 ± 0.22 mm
EFS-evoked amplitude of contraction [3, 21]: 2.34 ± 0.30^a mm
EFS-evoked amplitude of contraction [3, 22]: 2.74 ± 0.37^a mm
EFS-evoked amplitude of contraction [3, 23]: 3.38 ± 0.36^b^c mm
EFS-evoked amplitude of contraction [3, 24]: 0.40 ± 0.09 mm
EFS-evoked amplitude of contraction [3, 25]: 0.46 ± 0.01 mm
EFS-evoked amplitude of contraction [3, 26]: 0.77 ± 0.22 mm
effect of obestatin on EFS-evoked contraction following pre-incubation with TTX [3, 27]: the effects of obestatin were blocked
EFS-evoked amplitude of contraction [4, 9]: 0.53 ± 0.26^a^c mm
EFS-evoked amplitude of contraction [4, 10]: 0.70 ± 0.35^a mm
EFS-evoked amplitude of contraction [4, 11]: 1.22 ± 0.59^a mm
EFS-evoked amplitude of contraction [4, 12]: 0.17 ± 0.07 mm
EFS-evoked amplitude of contraction [4, 13]: 0.20 ± 0.08 mm
EFS-evoked amplitude of contraction [4, 14]: 0.31 ± 0.17 mm
EFS-evoked amplitude of contraction [4, 15]: 1.75 ± 0.18^a^d mm
EFS-evoked amplitude of contraction [4, 16]: 1.75 ± 0.18^a^b mm
EFS-evoked amplitude of contraction [4, 17]: 1.49 ± 0.30^a mm
EFS-evoked amplitude of contraction [4, 18]: 0.28 ± 0.10 mm
EFS-evoked amplitude of contraction [4, 19]: 0.30 ± 0.12 mm
EFS-evoked amplitude of contraction [4, 20]: 0.45 ± 0.15 mm
EFS-evoked amplitude of contraction [4, 21]: 2.47 ± 0.23^b^d mm
EFS-evoked amplitude of contraction [4, 22]: 2.74 ± 0.37^b mm
EFS-evoked amplitude of contraction [4, 23]: 3.76 ± 0.29^b mm
EFS-evoked amplitude of contraction [4, 24]: 0.46 ± 0.23 mm
EFS-evoked amplitude of contraction [4, 25]: 0.34 ± 0.11 mm
EFS-evoked amplitude of contraction [4, 26]: 0.61 ± 0.27 mm
effect of obestatin on EFS-evoked contraction following pre-incubation with TTX [4, 27]: the effects of obestatin were blocked
level at 0.5 h ([5]; 2 ug/kg BW): 0.369 ± 0.026 ng/mL
level at 1 h ([5]; 2 ug/kg BW): 0.37 ± 0.023 ng/mL
level at 0.5 h ([5]; 10 ug/kg BW): 0.413 ± 0.011 ng/mL
